Measurements: patent US20140256693A1, “PYRROLO [1,2-C] IMIDAZOLE DERIVATIVES FOR USE IN THE PROPHYLAXIS OR TREATMENT OF CANCER WHICH IS REFRACTORY TO KNOWN CANCER THERAPIES” (TAKEDA PHARMACEUTICAL COMPANY LIMITED, priority 2007, published 2014)

Tested on: castrated male cynomolguses
Experiment: Serum DHEA and testosterone in castrated male cynomolguses after repeated oral administration (RIA)
Assay type: in vivo
Settings: castrated male cynomolgus, 7.5 or 15 mg/kg/dose oral, twice a day for one week
Method: (+)-6-(7-Hydroxy-6,7-dihydro-5H-pyrrolo[1,2-c]imidazol-7-yl)-N-methyl-2-naphthamide was used as a test compound belonging to compound (I′). For oral administration, the test compound was weighed and placed in a mortar, 0.5% methylcellulose solution was added thereto, and the mixture was sufficiently admixed with a pestle to give a suspension.
6 to 12-year-old castrated male cynomolguses were divided into two groups (7.5 mg/kg/time test compound administration group and 15 mg/kg/time test compound administration group) each including 3 cynomolguses such that blood DHEA concentration would be impartial. The test compound was repeatedly administered orally twice a day (bid) for one week. Blood samples were collected twice a day from 3 days prior to the administration through the final day of administration. Vehicle (0.5% methylcellulose) was administered about one month after the completion of administration, and blood samples were collected according to the same schedule. Serum DHEA and serum testosterone concentrations were measured by RIA (radioimmunoassay).
The serum DHEA concentrations of the test compound administration group are shown in FIG. 1, and the serum DHEA concentrations of the vehicle administration group where vehicle was administered about a month after completion of the administration of the test compound are shown in FIG. 2. […]

## CNC(=O)c1ccc2cc(C3(O)CCn4cncc43)ccc2c1 (single isomer, unassigned; (+)) [test compound, (+)-6-(7-Hydroxy-6,7-dihydro-5H-pyrrolo[1,2-c]imidazol-7-yl)-N-methyl-2-naphthamide]
FIG. 1, maintained at low levels during the administration period
  serum DHEA concentration: decreased
FIG. 3, maintained at low levels during the administration period
  serum testosterone concentration: decreased
